Molecules are shown by their SMILES.

Common to all, as to format: cell-based, human
One experiment deals with WM1552C cells. Description: cell counts after DFO (simulated hypoxia), WM1552C and WM1552C/211. Here is the method:
(§1) A375 cells and WM1552C, both wild-type and miR-211-expressing, were subjected to treatment with 0, 250 nM, or 400 nM defroxamine (DFO) to simulate hypoxic conditions in order to determine whether miR-211 expression is capable of being regulated by changes in O2 concentrations. Cell counts were performed for each treatment group.
(§2) Relative to untreated cells, survival was about 45% following 250 nM DFO and about 25% following 400 nM DFO. The presence of miR-211 in these cells caused this effect to be greatly exacerbated, reducing survival to about 13% at 250 nM DFO and about 8% at 400 nM DFO. Similarly, for WM1552C cells, survival was about 77% at 250 nM DFO and about 55% at 400 nM DFO, compared to untreated cells (FIG. 21).

For experiment [1], the system named is miR-211 expression. The experiment in a line: qPCR of miR-211 expression under simulated hypoxia in SKMEL-28 cells. The conditions noted are these: DFO-simulated hypoxia. Here is the method: (§3) The effect of hypoxia on miR-211 expression was investigated under simulated (DFO) and actual hypoxic conditions in both melanocytes and SKMEL-28 cells. miRNA-211 expression was determined by qPCR.

The test system of a further experiment is SKMEL-28 cells. Description: cell counts after DFO with or without miR-211 inhibitor, SKMEL-28. On the procedure:
SKMEL-28 cells, were subjected to the same DFO or hypoxic conditions as described above either in the presence or absence of an miR-211 inhibitor (has-miR-211 Anti-miR™ miRNA Inhibitor, Ambion, catalog numberAM17000, ID AM10168). […] The survival of SKMEL-28 cells was about 64% at 250 nM DFO and about 50% 400 nM DFO, compared to untreated cells. […] The survival of the SKMEL-28 cells treated with the miR-211 inhibitor was about 85% at 250 nM DFO and about 70% at 400 nM DFO.

Experiment [2] concerns miR-211 expression. The experiment in a line: qPCR of miR-211 expression under simulated hypoxia in melanocytes. Conditions: DFO-simulated hypoxia. Here is the method:
as §3

The next experiment deals with A375 cells. The experiment in a line: cell counts after DFO (simulated hypoxia), A375 and A375/211. On the procedure: as §1, §2
A further experiment relates to IGFBP5 mRNA. Description: Next Gen sequencing of IGFBP5 mRNA in WM1552C cells. On the procedure:
To extend the findings of the MITF knock-down study and to further establish IGFBP5 as a miR-211 target, the effect of miR-211 expression on IGFBP5 mRNA was determined. WM1552C cells were transfected with either an empty vector or the vector encoding and expressing miR-211. Additionally, untransfected WM1552C cells were treated with 5-Aza-2′deoxycytidine (“5-Aza”) to investigate whether miR-211 down-regulates IGFBP5 mRNA production through a genomic methylation mechanism.

With `CC(=O)N(O)CCCCCNC(=O)CCC(=O)N(O)CCCCCNC(=O)CCC(=O)N(O)CCCCCN` [DFO, defroxamine], the “survival compared to untreated cells” value in the experiment on WM1552C cells (WM1552C cells, 250 nM DFO) was “about 77%”; with WM1552C cells (WM1552C cells, 400 nM DFO) it was “about 55%”; in the experiment with WM1552C cells (WM1552C/211 (miR-211-expressing) cells, 250 nM DFO) it was “about 40%”; in the experiment on WM1552C cells (WM1552C/211 (miR-211-expressing) cells, 400 nM DFO), “about 21%”; in the experiment with SKMEL-28 cells (250 nM DFO) it was “about 64%”; with SKMEL-28 cells (400 nM DFO), “about 50%”. Moreover, the miR-211 expression result in the experiment on miR-211 expression [1] is reported as “neither simulated nor actual hypoxic conditions had a significant effect”; in the experiment on miR-211 expression [2], “increases in a dose-dependent manner”. The “survival relative to untreated cells” value in the experiment on A375 cells (A375/211 (miR-211-expressing) cells, 250 nM DFO) is given as “about 13%”; in the experiment on A375 cells (A375/211 (miR-211-expressing) cells, 400 nM DFO), “about 8%”; with A375 cells (A375 cells, 250 nM DFO) it was “about 45%”; in the experiment with A375 cells (A375 cells, 400 nM DFO), “about 25%”. In the experiment on A375 cells (miR-211-expressing melanoma cells treated with hypoxia mimetic agent), the cell death result is given as “increased cell death”.
With `Nc1ncn([C@H]2C[C@H](O)[C@@H](CO)O2)c(=O)n1` [5-Aza, 5-Aza-2′deoxycytidine, reference compound], the “IGFBP5 mRNA expression” value in the experiment on IGFBP5 mRNA is “no effect”.

The values are drawn from patent US9994915B2, “miR-211 expression and related pathways in human melanoma” (Sanford-Burnham Medical Research Institute, priority 2010, dated 2018).
